Assay results published in US20210251975A1, “USE OF CICLOPIROX FOR INHIBITING HBV CORE ASSEMBLY” (GWANGJU INSTITUTE OF SCIENCE AND TECHNOLOGY, priority 2018, published 2021).

Legend:
[1] = system: HBV; assay: Screening of FDA-approved drug library: quantity of released HBV DNA from HepG2.2.15 cells; assay type: cell-based, Hepatitis B virus (HBV); conditions: treated for 6 days
Method: (§1) After treating cells with drugs such as ciclopirox, entecavir, and/or tenofovir, the supernatant of the cells was collected. After adding to 30 μL of the supernatant 1×PBS of the same volume, 6 μL of 1 N NaOH was added. After incubation at 37° C. for 1 hour, 6 μL of Tris-HCl/HCl was added. Then, the protein was denatured by heat-treating at 98° C. for 5 minutes. After removing the denatured protein through centrifugation, the virus existing in the supernatant was quantified by real-time PCR.
For screening of a drug having inhibitory activity against HBV, an FDA-approved drug library with proven safety was used.
Specifically, after treating HBV-producing HepG2.2.15 cells with about 1,000 drugs at 1 mM every day for 3 days, the quantity of released HBV DNA was measured. After treating the cells with 19 drugs selected through the first screening for 6 days according to the same method, 13 drugs were selected by measuring HBV DNA (second screening). Entecavir, which is used as an HBV drug, was used as a positive control group.

[2] = molecular target: T1, HBV core and capsid proteins (Hepatitis B virus genotype D subtype ayw, UniProt P03146); assay: Expression of core and capsid proteins (immunoblot) for the 19 screened drugs; assay type: cell-based; conditions: D in FIG. 1
T1 construct: expressed in transfected cells; host or cells: HepG2.2.15
T1 sequence (P03146 whole entry): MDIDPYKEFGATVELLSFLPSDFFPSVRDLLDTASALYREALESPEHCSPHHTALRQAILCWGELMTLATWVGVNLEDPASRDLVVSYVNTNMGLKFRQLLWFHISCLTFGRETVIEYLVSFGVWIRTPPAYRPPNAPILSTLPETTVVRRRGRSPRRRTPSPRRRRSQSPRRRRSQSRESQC
Excerpt: (§2) Results were expressed as mean±standard deviation and tested by the Student's t-test. *: p<0.05, ** p<0.01.
It was identified to be ciclopirox.

[3] = system: core protein 149 (CP149) dimers; assay: Core assembly reaction of purified core protein 149 (CP149) dimers, incl. sucrose gradient ultracentrifugation and electron microscopy; assay type: biochemical, Hepatitis B virus (HBV)
Excerpt: In addition, in order to investigate whether the core assembly is inhibited and the protein remains as dimers, reaction products were separated through ultracentrifugation at different sucrose concentrations after the assembly of CP149 under the assembly reaction conditions.

[4] = system: HBsAg protein; assay: Secreted HBsAg protein by ELISA in HBV-expressing and HBV-overexpressing cell lines; assay type: cell-based, Hepatitis B virus (HBV); conditions: ciclopirox concentration gradient
Method: as §2
The secreted HBsAg protein of HBV was analyzed by enzyme-linked immunosorbent assay. Specifically, HBsAg-specific ELISA was used. A supernatant collected from the cells treated with each drug was analyzed using a kit (hepatitis B surface antigen Ab ELISA kit) according to the instruction of the manufacturer (Abnova).

[5] = system: HBV core protein; assay: Structural analysis (crystals) of ciclopirox binding site of HBV core protein and Y118 mutation; set-up: species or system Hepatitis B virus (HBV)
Method: The secondary structure of the protein was computed using STRIDE. […] E and F in FIG. 3 show the ciclopirox-bound and ciclopirox-free sites of chains B and C.
Therefore, the ciclopirox binding site of the HBV core protein was investigated. Specifically, structural analysis of the core protein was conducted by forming crystals.

[6] = system: HBV; assay: HBV DNA released out of or remaining in cells at ciclopirox concentration gradient; assay type: cell-based, Hepatitis B virus (HBV); conditions: HBV-expressing (HepG2.2.15) and HBV-overexpressing cell lines, 6 days, increasing concentration
Excerpt: Specifically, A and B in FIG. 5 show a result of treating HepG2.2.15 cells and HBV-expressing liver cells with ciclopirox for 6 days and investigating the decrease of HBV DNA at different concentration gradients. C and D FIG. 5 show a result of investigating the inhibitory effect of ciclopirox by extracting HBV DNA from the cells rather than the DNA secreted out of the cells. Specifically, after lysing HepG2.2.15 cells and HBV-expressing liver cells and removing […] using micrococcal nuclease, virus DNA was extracted and its expression level was investigated. As a result, it was confirmed that HBV DNA was decreased according to the concentration gradient of ciclopirox.
as §1
After treating cells with drugs such as ciclopirox, entecavir, and/or tenofovir, the cells were washed with 1×PBS. Then, after lysing the cells and treating with nuclease, HBV DNA was extracted from the cells. […]

[7] = system: HBV; assay: HBV infection system in NTCP-HepG2 and NTCP-Huh7 cells; assay type: cell-based, Hepatitis B virus (HBV); conditions: NTCP-HepG2 and NTCP-Huh7, 14 days, concentration gradient
Method: Specifically, after treating HepG2 and Huh7 cell lines which express a receptor (NTCP) essential for HBV infection with ciclopirox for 6 hours, the supernatant of HepG2.2.15 cells were treated with ciclopirox. 16 hours later, after viral washing, followed by treating with ciclopirox every day for 14 days, the cells and cell supernatant were collected and analyzed. B and C in FIG. 6 show a result of investigating the expression of NTCP in the NTCP cell lines by immunoblot and flow cytometry. D to F in FIG. 6 show the HBV-inhibiting effect of ciclopirox in the virus infection system.
In addition, after treating HBV-infected liver cancer cell lines NTCP-HepG2 and NTCP-Huh7 with ciclopirox, the degree of HBV proliferation was analyzed. After pretreating the liver cancer cell lines with ciclopirox for 6 hours, the cells were incubated with ciclopirox and HBV for 16 hours. Then, the cells were analyzed after culturing for 14 days. This experimental procedure is schematically illustrated in A in FIG. 6. As shown in B and C in FIG. 6, the NTCP protein expressed from the liver cancer cells NTCP-HepG2 and NTCP-Huh7 was analyzed by immunoblot and flow cytometry.

[8] = system: HBV; assay: Combination treatment of ciclopirox with entecavir or tenofovir in liver cancer cell lines; assay type: cell-based, Hepatitis B virus (HBV); conditions: ciclopirox alone or plus 1 mM ETV or 1 mM TDF
Method: After treating with ciclopirox according to a concentration gradient, 1 mM ETV or 1 mM TDF was treated in combination.
After treating cells with drugs such as ciclopirox, entecavir, and/or tenofovir, the cells were washed with 1×PBS. Then, after lysing the cells and treating with nuclease, HBV DNA was extracted from the cells. The DNA was extracted according to the instruction of the manufacturer (InvivoGen).

[9] = system: HBV; assay: HBV-expressing mouse (hydrodynamic injection of pAAV HBV 1.2x plasmid); assay type: in vivo
Method: Specifically, after expressing HBV in mouse by injecting using a hydrodynamic injection method an HBV-expressing pAAV HBV 1.2× plasmid into the mouse tail, the drug was treated every day for 5 days.
Specifically, HBV was produced in vivo by hydrodynamically injecting an HBV-expressing plasmid into mouse tail. Then, after treating with ciclopirox alone, tenofovir alone, or a combination of ciclopirox and tenofovir every day for 5 days, the degree of proliferation of HBV in mouse serum was investigated. The experimental procedure is schematically illustrated in A in FIG. 8.

[10] = system: HBV core protein; assay: Core assembly in core protein-expressing and entire HBV protein-expressing cell lines
Method: Specifically, the isolated Cp149 dimeric protein was incubated with a core assembly reaction buffer (150 mM NaCl, 15 mM HEPES) and the drug at 37° C. for 1 hour. Then, after separating the protein on agarose gel, immunoblot was conducted using a rabbit polyclonal anti-HBV core antibody. In addition, for isolation of the core expressed in the cells, the cells were lysed with 1% NP-40 and ultracentrifuged (55,000 rpm) at 20° C. for 8 hours. The assembled core that settled down at the bottom was separated on agarose gel and then immunoblot was conducted using a rabbit polyclonal anti-HBV core antibody.

[11] = sucrose gradient 10% to 50%, ultracentrifugation, treated vs not treated

SMILES: Cc1cc(C2CCCCC2)n(O)c(=O)c1 [ciclopirox]
- inhibition of released HBV DNA (second screening) [1]: consistent effects
- expression of the capsid protein [2]: remarkably inhibited
- expression of the core protein [2]: without affecting
- morphology of the assembled core (electron microscopic images) ([3]; E in FIG. 2): the size of the assembled core is enlarged by ciclopirox and the circular shape is destroyed
- assembly of the purified core protein 149 (CP149) dimers ([3]; assembly reaction buffer, 37° C., 1 hour, immunoblot): inhibited as the concentration of ciclopirox increased
- core-assembled CP149 (fractions 5-8) [3, 11]: decreased
- dimeric CP149 (fractions 1-3) [3, 11]: increased
- amount of the released HBsAg protein [4]: no effect
- inhibition of core assembly with core protein mutated at Y118 ([5]; D in FIG. 3): mutation at Y118 reduces inhibition of core assembly
- binding to the HBV core protein ([5]; crystal structure, hexameric core protein, hydrogen bonding at tyrosine 118): binding directly to the HBV core protein
- quantity of HBV DNA released out of cells [6]: decreased
- quantity of HBV DNA remaining in cells [6]: decreased
- HBV DNA released out of the cells [7]: decrease
- HBV cccDNA remaining in the cells [7]: decrease
- HBV rcDNA remaining in the cells [7]: decrease
- quantity of the HBsAg protein secreted out of the cells [8]: No HBsAg-inhibiting effect
- HBV DNA 5 days after the treatment ([9]; ciclopirox alone): almost nonexistent
- amount of HBV DNA in blood ([9]; treated every day for 5 days): remarkably reduces
- amount of the HBsAg protein in blood ([9]; treated every day for 5 days): no significant difference
- quantity of the HBV core protein in liver cells ([9]; treated every day for 5 days): reduced
- core assembly in each cell line [10]: inhibited according to the concentration gradient
